Experiments:
Type in all cases: in vivo
Avena fatua (AVEFA) [1] = assay: Example B post-emergence herbicidal activity, glasshouse pot test; conditions: 312 h, rate 250 g/ha, evaluated after 13 days, read-out: Post-emergence activity AVEFA (100=total damage to plant; 0=no damage to plant)
Method: (§1) Seeds of a variety of test species were sown in standard soil in pots. After cultivation for one day (pre-emergence) or after 8 days cultivation (post-emergence) under controlled conditions in a glasshouse (at 24/16° C., day/night; 14 hours light; 65% humidity), the plants were sprayed with an aqueous spray solution derived from the formulation of the technical active ingredient in acetone/water (50:50) solution containing 0.5% Tween 20 (polyoxyethelyene sorbitan monolaurate, CAS RN 9005-64-5). The test plants were then grown in a glasshouse under controlled conditions in a glasshouse (at 24/16° C., day/night; 14 hours light; 65% humidity) and watered twice daily. After 13 days for pre and post-emergence, the test was evaluated (100=total damage to plant; 0=no damage to plant).
(§2) Alopecurus myosuroides (ALOMY), Avena fatua (AVEFA), Setaria faberi (SETFA), Echinochloa crus-galli (ECHCG), Solanum nigrum (SOLNI) and Amaranthus retroflexus (AMARE)

[2] = test system: Alopecurus myosuroides (ALOMY); assay: as above; conditions: 312 h, rate 250 g/ha, evaluated after 13 days, read-out: Post-emergence activity ALOMY (100=total damage to plant; 0=no damage to plant)
Method: as §1, §2

Setaria faberi (SETFA) [3] = assay: as above; conditions: 312 h, rate 250 g/ha, evaluated after 13 days, read-out: Post-emergence activity SETFA (100=total damage to plant; 0=no damage to plant)
Method: as §1, §2

[4] = test system: Amaranthus retroflexus (AMARE); assay: as above; conditions: 312 h, rate 250 g/ha, evaluated after 13 days, read-out: Post-emergence activity AMARE (100=total damage to plant; 0=no damage to plant)
Method: as §1, §2

[5] = test system: Echinochloa crus-galli (ECHCG); assay: as above; conditions: 312 h, rate 250 g/ha, evaluated after 13 days, read-out: Post-emergence activity ECHCG (100=total damage to plant; 0=no damage to plant)
Method: as §1, §2

Avena fatua (AVEFA) [6] = assay: Example B pre-emergence herbicidal activity, glasshouse pot test; conditions: 312 h, rate 250 g/ha, evaluated after 13 days, read-out: Pre-emergence activity AVEFA (100=total damage to plant; 0=no damage to plant)
Method: as §1, §2

[7] = test system: Alopecurus myosuroides (ALOMY); assay: as above; conditions: 312 h, rate 250 g/ha, evaluated after 13 days, read-out: Pre-emergence activity ALOMY (100=total damage to plant; 0=no damage to plant)
Method: as §1, §2

Setaria faberi (SETFA) [8] = assay: as above; conditions: 312 h, rate 250 g/ha, evaluated after 13 days, read-out: Pre-emergence activity SETFA (100=total damage to plant; 0=no damage to plant)
Method: as §1, §2

[9] = test system: Amaranthus retroflexus (AMARE); assay: as above; conditions: 312 h, rate 250 g/ha, evaluated after 13 days, read-out: Pre-emergence activity AMARE (100=total damage to plant; 0=no damage to plant)
Method: as §1, §2

[10] = test system: Echinochloa crus-galli (ECHCG); assay: as above; conditions: 312 h, rate 250 g/ha, evaluated after 13 days, read-out: Pre-emergence activity ECHCG (100=total damage to plant; 0=no damage to plant)
Method: as §1, §2

CCc1ccc(-c2ccc(Cl)cc2)cc1C1=C(O)[C@@]2(C)C=C[C@H](O2)C1=O [Compound A-62]
pest or weed control at 250 g/ha (Avena fatua (AVEFA) [1]): 70%
pest or weed control at 250 g/ha [2]: 70%
pest or weed control at 250 g/ha (Setaria faberi (SETFA) [3]): 100%
pest or weed control at 250 g/ha [4]: 0%
pest or weed control at 250 g/ha [5]: 100%
pest or weed control at 250 g/ha (Avena fatua (AVEFA) [6]): 20%
pest or weed control at 250 g/ha [7]: 20%
pest or weed control at 250 g/ha (Setaria faberi (SETFA) [8]): 60%
pest or weed control at 250 g/ha [9]: 0%
pest or weed control at 250 g/ha [10]: 0%

Cc1ccc(-c2cnc(N)nc2)cc1C1=C(O)C(C)(C)OC(C)(C)C1=O [Compound A-104]
pest or weed control at 250 g/ha (Avena fatua (AVEFA) [6]): 0%
pest or weed control at 250 g/ha [7]: 0%
pest or weed control at 250 g/ha (Setaria faberi (SETFA) [8]): 0%
pest or weed control at 250 g/ha [9]: 0%
pest or weed control at 250 g/ha [10]: 0%

CCc1ccc(-n2cnc(Cl)c2Cl)cc1C1=C(OC(=O)OC)C(C)(C)OC(C)(C)C1=O [Compound D-32]
pest or weed control at 250 g/ha (Avena fatua (AVEFA) [1]): 70%
pest or weed control at 250 g/ha [2]: 50%
pest or weed control at 250 g/ha (Setaria faberi (SETFA) [3]): 80%
pest or weed control at 250 g/ha [4]: 0%
pest or weed control at 250 g/ha [5]: 90%
pest or weed control at 250 g/ha (Avena fatua (AVEFA) [6]): 80%
pest or weed control at 250 g/ha [7]: 20%
pest or weed control at 250 g/ha (Setaria faberi (SETFA) [8]): 80%
pest or weed control at 250 g/ha [9]: 0%
pest or weed control at 250 g/ha [10]: 60%

CCc1ccc(-c2ccc(Cl)cc2Cl)cc1C1=C(O)C(C)(C)OC(C)C1=O (single isomer, unassigned) [Compound A-71]
pest or weed control at 250 g/ha (Avena fatua (AVEFA) [1]): 30%
pest or weed control at 250 g/ha [2]: 30%
pest or weed control at 250 g/ha (Setaria faberi (SETFA) [3]): 100%
pest or weed control at 250 g/ha [4]: 100%
pest or weed control at 250 g/ha [5]: 100%
pest or weed control at 250 g/ha (Avena fatua (AVEFA) [6]): 20%
pest or weed control at 250 g/ha [7]: 40%
pest or weed control at 250 g/ha (Setaria faberi (SETFA) [8]): 100%
pest or weed control at 250 g/ha [9]: 0%
pest or weed control at 250 g/ha [10]: 80%

CCc1ccc(-c2ccc(Cl)cc2Cl)cc1C1=C(O)C(C)(C)SC(C)(C)C1=O (single isomer, unassigned) [Compound C-4]
pest or weed control at 250 g/ha (Avena fatua (AVEFA) [1]): 30%
pest or weed control at 250 g/ha [2]: 60%
pest or weed control at 250 g/ha (Setaria faberi (SETFA) [3]): 70%
pest or weed control at 250 g/ha [4]: 20%
pest or weed control at 250 g/ha [5]: 70%
pest or weed control at 250 g/ha (Avena fatua (AVEFA) [6]): 0%
pest or weed control at 250 g/ha [7]: 0%
pest or weed control at 250 g/ha (Setaria faberi (SETFA) [8]): 0%
pest or weed control at 250 g/ha [9]: 0%
pest or weed control at 250 g/ha [10]: 0%

CCOc1ccc(-c2ccc(Cl)cc2)cc1C1=C(O)C(C)(C)OC(C)(C)C1=O [Compound A-89]
pest or weed control at 250 g/ha (Avena fatua (AVEFA) [1]): 50%
pest or weed control at 250 g/ha [2]: 80%
pest or weed control at 250 g/ha (Setaria faberi (SETFA) [3]): 80%
pest or weed control at 250 g/ha [4]: 0%
pest or weed control at 250 g/ha [5]: 90%
pest or weed control at 250 g/ha (Avena fatua (AVEFA) [6]): 0%
pest or weed control at 250 g/ha [7]: 0%
pest or weed control at 250 g/ha (Setaria faberi (SETFA) [8]): 50%
pest or weed control at 250 g/ha [9]: 0%
pest or weed control at 250 g/ha [10]: 0%

CCc1ccc(-c2ccc(Cl)c(F)c2)cc1C1=C(O)C(C)(C)S(=O)(=O)C(C)(C)C1=O [Compound C-13]
pest or weed control at 250 g/ha (Avena fatua (AVEFA) [1]): 90%
pest or weed control at 250 g/ha [2]: 80%
pest or weed control at 250 g/ha (Setaria faberi (SETFA) [3]): 100%
pest or weed control at 250 g/ha [4]: 20%
pest or weed control at 250 g/ha [5]: 100%
pest or weed control at 250 g/ha (Avena fatua (AVEFA) [6]): 90%
pest or weed control at 250 g/ha [7]: 20%
pest or weed control at 250 g/ha (Setaria faberi (SETFA) [8]): 80%
pest or weed control at 250 g/ha [9]: 0%
pest or weed control at 250 g/ha [10]: 30%

CCc1ccc(-c2ccc(Cl)cc2C)cc1C1=C(O)C(C)(C)OC(C)(C)C1=O [Compound A-64]
pest or weed control at 250 g/ha (Avena fatua (AVEFA) [1]): 0%
pest or weed control at 250 g/ha [2]: 20%
pest or weed control at 250 g/ha (Setaria faberi (SETFA) [3]): 90%
pest or weed control at 250 g/ha [4]: 20%
pest or weed control at 250 g/ha [5]: 100%
pest or weed control at 250 g/ha (Avena fatua (AVEFA) [6]): 20%
pest or weed control at 250 g/ha [7]: 0%
pest or weed control at 250 g/ha (Setaria faberi (SETFA) [8]): 40%
pest or weed control at 250 g/ha [9]: 0%
pest or weed control at 250 g/ha [10]: 40%

Cc1ccc(-c2cc[n+]([O-])cc2)cc1C1=C(O)C(C)(C)OC(C)(C)C1=O [Compound A-105]
pest or weed control at 250 g/ha (Avena fatua (AVEFA) [6]): 0%
pest or weed control at 250 g/ha [7]: 0%
pest or weed control at 250 g/ha (Setaria faberi (SETFA) [8]): 0%
pest or weed control at 250 g/ha [9]: 0%
pest or weed control at 250 g/ha [10]: 0%
